This experiment addresses Bromodomain-containing protein 4 (Homo sapiens, UniProt O60885). Nature of the experiment: A mixture comprising 100 nM GST-BRD4 (BD1+BD2) and 100 nM biotinylated acetyl-histone H4 (Lys5,8,12,16) peptide was prepared in assay buffer (50 mM HEPES pH 7.4; 25 mM NaCl; 0.05% Tween 20; 0.1% bovine serum albumin (BSA); 10 mM dithiothreitol (DTT)). After adding 6 μl of the mixture to the diluent, 6 μl of the pre-mixed AlphaLISA Glutathione Acceptor Beads and AlphaScreen Streptavidin Donor Beads (PerkinElmer, 10 μg/ml in assay buffer, respectively) was added thereto. The samples were incubated in the dark at room temperature for 30 minutes (shaking at 300 rpm). Then, the signals were measured with PerkinElmer Envision HTS Multilabel Reader using an alpha screen protocol of PerkinElmer. Each plate contained the negative control in which biotinylated acetyl-histone H4 peptide and GST-BRD4 (BD1+BD2) were replaced by assay buffer. In the case of using the software GraphPad Prism for calculation, the negative control point was input as a low standard value. The positive control (probe molecule l-BET762 containing protein/peptide mixture) proceeded to pipetting.
With `Cc1nnc2c(NCCCCNC(=O)OC(C)C)nc3c(C(F)(F)F)cc(F)cc3n12`, the IC50 was 91 nM.
The value for `Cc1nnc2c(NCCCCNC(=O)C(C)(C)C)nc3ccc(F)cc3n12` was 61 nM; that for `Cc1nnc2c(NCCCCNC(=O)c3ccccc3)nc3ccc(NC(=O)C(C)C)cc3n12` was 56 nM.
The value for `Cc1nnc2c(NCCCCNC(=O)c3ccccc3)nc3ccccc3n12` was 58 nM; that for `Cc1ccc2nc(NCCCCNC(=O)C(C)(C)C)c3nnc(C)n3c2c1` was 56 nM; that for `Cc1nnc2c(NCCCCNC(=O)C(C)C)nc3ccc(F)cc3n12` was 77 nM.
Under `COCCOc1ccc2c(c1)nc(NCCCCNC(C)=O)c1nnc(C)n12` stands 91 nM.

As usually defined, the IC50 is the concentration that inhibits the measured activity by half.

The record behind these values is ChEMBL document CHEMBL5728514, “[1,2,4]Triazolo[4,3-a]quinoxaline derivative, method for preparing same, and pharmaceutical composition for preventing or treating BET protein-related diseases, containing same as active ingredient” (2021).
